Square brackets hold non-standard residues; d marks the D form. Peptide text beside a SMILES is read from it. Gly(N(CH2)2(3-indolyl)) = O=C(O)CNCCc1c[nH]c2ccccc12; Nspe = C[C@H](NCC(=O)O)c1ccccc1; Nphe = O=C(O)CNCc1ccccc1; Nlys = NCCCCNCC(=O)O
Legend:
[1] = Analytical reversed-phase HPLC elution (hydrophobicity); format: physicochemical; details: Table S1; analytical RP-HPLC, SunFire C18, water/ACN + 0.1% TFA, 5 to 100% B linear over 30 min, 1 mL/min, UV 220 nm; approximate comparison of hydrophobicity
Experimental: 7. HPLC chromatogram, retention time (tR), and LC-MS data
HPLC analysis of peptoids was conducted using a Waters HPLC system equipped with a Waters 2489 UV/Visible Detector, 1525 Binary HPLC Pump, 2707 Autosampler, 5CH column oven, and a C18 column (SunFire C18, 4.6 × 250 mm, 5 μm; Waters Corp., Milford, MA, USA). The mobile phases were deionized water (A, with + 0.1% TFA) and acetonitrile (ACN; B, with + 0.1% TFA). Before sample injection, the column was conditioned with 5% B for 10 min. Then, the mobile phase was maintained at 5% B for 2 min, followed by increasing B to 100% using a linear gradient over 30 min. At this point, 100% B was maintained for 5 additional min. The flow rate of the mobile phase was 1 mL/min. The sample was detected by measuring absorbance at 220 nm. […]

rat erythrocytes = test: Hemolysis assay; format: cell-based; details: for HC10 / HC50: pH 7.4
Experimental: The hemolysis assay was performed using rat erythrocytes in phosphate‐buffered saline (PBS), as reported by Mendes et al.^[ [45] ^] Animal studies were approved by the Laboratory Animal Resource Center of Gwangju Institute of Science and Technology. Blood was collected from a 13‐week‐old male Sprague‐Dawley rat in tubes containing 158 USP units of sodium heparin to prevent coagulation and centrifuged at 1000 rpm for 10 min at 4 °C. Plasma was removed carefully and erythrocyte pellets were washed three times with PBS (35 mM phosphate, pH 7.4, 150 mM NaCl). Next, 150 µL of a 10% erythrocyte suspension was mixed with 50 µL of serially diluted peptoids (0–100 µM) in a 96‐well black polypropylene plates (Greiner, Kremsmünster, Austria). Untreated erythrocytes and cells lysed by the addition of 1% Triton X‐100 were used as negative and positive controls, respectively, with the 1% Triton X‐100‐treated wells being accepted to represent 100% hemolysis. The reaction mixture was incubated at 37 °C for 60 min, and the plates were centrifuged at 1000 rpm for 15 min. Aliquots (150 µL) of the supernatant were transferred to fresh 96‐well plates, and the absorbance of each well was measured at 540 nm using a microplate reader. Hemolysis induced by peptoids was calculated as the percentage value of Triton X‐100 lysed cells. The percentage of hemolysis by the extracts was calculated according to the following formula: % hemolysis = [(Abs 540 nm in the peptoid solution – Abs 540 nm in PBS) / (Abs 540 nm in 1% Triton X‐100 – Abs 540 nm in PBS)] × 100. HC10 and HC50 were defined as the peptoid concentrations that caused 10% and 50% hemolysis in rat erythrocytes, respectively. H max indicates the percentage of hemolysis observed at the maximum peptoid concentration, 100 µM throughout this study.

HPLC elution [1] [% MeCN]	Compound	Hmax (100 µM) (rat erythrocytes) [%]	HC10 (rat erythrocytes) [µM]	HC50 (rat erythrocytes) [µM]
54.1	C[C@@H](c1ccccc1)N(CC(=O)N(CCc1c[nH]c2ccccc12)CC(N)=O)C(=O)CN(CCCCN)C(=O)CN(C(=O)CN(C(=O)CN(CCCCN)C(=O)CN(C(=O)CN(C(=O)CN(CCCCN)C(=O)CN(C(=O)CN(C(=O)CNCCCCN)[C@@H](C)c1ccccc1)[C@@H](C)c1ccccc1)[C@@H](C)c1ccccc1)[C@@H](C)c1ccccc1)[C@@H](C)c1ccccc1)[C@@H](C)c1ccccc1 [peptoid 7] (H-[Nlys][Nspe][Nspe][Nlys][Nspe][Nspe][Nlys][Nspe][Nspe][Nlys][Nspe][Gly(N(CH2)2(3-indolyl))]-NH2)	94.1±4.3	7.8	23.8
54.5	C[C@@H](c1ccccc1)N(CC(N)=O)C(=O)CN(C(=O)CN(CCCCN)C(=O)CN(CCc1c[nH]c2ccccc12)C(=O)CN(C(=O)CN(CCCCN)C(=O)CN(C(=O)CN(C(=O)CN(CCCCN)C(=O)CN(C(=O)CN(C(=O)CNCCCCN)[C@@H](C)c1ccccc1)[C@@H](C)c1ccccc1)[C@@H](C)c1ccccc1)[C@@H](C)c1ccccc1)[C@@H](C)c1ccccc1)[C@@H](C)c1ccccc1 [peptoid 8]	105.1±2.2	12.8	28.4
55.9	C[C@@H](c1ccccc1)N(CC(N)=O)C(=O)CN(C(=O)CN(CCCCN)C(=O)CN(CCc1c[nH]c2ccccc12)C(=O)CN(CCc1c[nH]c2ccccc12)C(=O)CN(CCCCN)C(=O)CN(C(=O)CN(C(=O)CN(CCCCN)C(=O)CN(C(=O)CN(C(=O)CNCCCCN)[C@@H](C)c1ccccc1)[C@@H](C)c1ccccc1)[C@@H](C)c1ccccc1)[C@@H](C)c1ccccc1)[C@@H](C)c1ccccc1 [peptoid 12]	87.4±2.4	29.1	65.2
56.0	C[C@@H](c1ccccc1)N(CC(N)=O)C(=O)CN(C(=O)CN(CCCCN)C(=O)CN(C(=O)CN(C(=O)CN(CCCCN)C(=O)CN(CCc1c[nH]c2ccccc12)C(=O)CN(CCc1c[nH]c2ccccc12)C(=O)CN(CCCCN)C(=O)CN(C(=O)CN(C(=O)CNCCCCN)[C@@H](C)c1ccccc1)[C@@H](C)c1ccccc1)[C@@H](C)c1ccccc1)[C@@H](C)c1ccccc1)[C@@H](C)c1ccccc1 [peptoid 13]	96.8±1.6	20.2	41.3
54.7	C[C@@H](c1ccccc1)N(CC(=O)N(CCc1c[nH]c2ccccc12)CC(=O)N(CCCCN)CC(=O)N(CC(=O)N(CC(=O)N(CCCCN)CC(=O)N(CC(=O)N(CC(=O)N(CCCCN)CC(=O)N(CC(=O)N(CCc1c[nH]c2ccccc12)CC(N)=O)[C@@H](C)c1ccccc1)[C@@H](C)c1ccccc1)[C@@H](C)c1ccccc1)[C@@H](C)c1ccccc1)[C@@H](C)c1ccccc1)C(=O)CNCCCCN [peptoid 16] (H-[Nlys][Nspe][Gly(N(CH2)2(3-indolyl))][Nlys][Nspe][Nspe][Nlys][Nspe][Nspe][Nlys][Nspe][Gly(N(CH2)2(3-indolyl))]-NH2)	100.3±1.7	13.8	25.0
56.0	C[C@@H](c1ccccc1)N(CC(=O)N(CCCCN)CC(=O)N(CC(=O)N(CC(=O)N(CCCCN)CC(=O)N(CC(=O)N(CC(=O)N(CCCCN)CC(=O)N(CC(=O)N(CCc1c[nH]c2ccccc12)CC(N)=O)[C@@H](C)c1ccccc1)[C@@H](C)c1ccccc1)[C@@H](C)c1ccccc1)[C@@H](C)c1ccccc1)[C@@H](C)c1ccccc1)C(=O)CN(CCc1c[nH]c2ccccc12)C(=O)CNCCCCN [peptoid 17] (H-[Nlys][Gly(N(CH2)2(3-indolyl))][Nspe][Nlys][Nspe][Nspe][Nlys][Nspe][Nspe][Nlys][Nspe][Gly(N(CH2)2(3-indolyl))]-NH2)	87.3±6.7	18.0	39.7

The next lines start with the compound.

Compound	HPLC elution [1] [% MeCN]	Hmax (100 µM) (rat erythrocytes) [%]	HC10 (rat erythrocytes) [µM]	HC50 (rat erythrocytes) [µM]
NCCCCNCC(=O)N(CC(=O)N(CC(=O)N(CCCCN)CC(=O)N(CC(=O)N(CC(=O)N(CCCCN)CC(=O)N(CC(=O)N(CC(=O)N(CCCCN)CC(=O)N(CC(=O)N(CC(N)=O)Cc1ccccc1)Cc1ccccc1)Cc1ccccc1)Cc1ccccc1)Cc1ccccc1)Cc1ccccc1)Cc1ccccc1)Cc1ccccc1 [peptoid 2, reference compound] (H-[Nlys][Nphe][Nphe][Nlys][Nphe][Nphe][Nlys][Nphe][Nphe][Nlys][Nphe][Nphe]-NH2)	50.7	17.7±1.1	20.4	> 100.0
C[C@@H](c1ccccc1)N(CC(N)=O)C(=O)CN(C(=O)CN(CCCCN)C(=O)CN(C(=O)CN(C(=O)CN(CCCCN)C(=O)CN(C(=O)CN(C(=O)CN(CCCCN)C(=O)CN(C(=O)CN(C(=O)CN(CCCCN)C(=O)CNCCc1c[nH]c2ccccc12)[C@@H](C)c1ccccc1)[C@@H](C)c1ccccc1)[C@@H](C)c1ccccc1)[C@@H](C)c1ccccc1)[C@@H](C)c1ccccc1)[C@@H](C)c1ccccc1)[C@@H](C)c1ccccc1 [peptoid 3]	55.8	100.5±9.9	6.3	13.9
C[C@@H](c1ccccc1)N(CC(=O)N(CCCCN)CC(=O)N(CC(=O)N(CC(=O)N(CCCCN)CC(=O)N(CC(=O)N(CC(=O)N(CCCCN)CC(=O)N(CC(=O)N(CC(=O)N(CCc1c[nH]c2ccccc12)CC(N)=O)[C@@H](C)c1ccccc1)[C@@H](C)c1ccccc1)[C@@H](C)c1ccccc1)[C@@H](C)c1ccccc1)[C@@H](C)c1ccccc1)[C@@H](C)c1ccccc1)C(=O)CN(C(=O)CNCCCCN)[C@@H](C)c1ccccc1 [peptoid 4] (H-[Nlys][Nspe][Nspe][Nlys][Nspe][Nspe][Nlys][Nspe][Nspe][Nlys][Nspe][Nspe][Gly(N(CH2)2(3-indolyl))]-NH2)	57.0	103.2±0.9	< 6.3	6.7
C[C@@H](c1ccccc1)N(CC(=O)N(CCCCN)CC(=O)N(CC(=O)N(CC(=O)N(CCCCN)CC(=O)N(CC(=O)N(CC(=O)N(CCCCN)CC(=O)N(CC(=O)N(CC(=O)N(CCc1c[nH]c2ccccc12)CC(N)=O)[C@@H](C)c1ccccc1)[C@@H](C)c1ccccc1)[C@@H](C)c1ccccc1)[C@@H](C)c1ccccc1)[C@@H](C)c1ccccc1)[C@@H](C)c1ccccc1)C(=O)CN(C(=O)CN(CCCCN)C(=O)CNCCc1c[nH]c2ccccc12)[C@@H](C)c1ccccc1 [peptoid 5] (H-[Gly(N(CH2)2(3-indolyl))][Nlys][Nspe][Nspe][Nlys][Nspe][Nspe][Nlys][Nspe][Nspe][Nlys][Nspe][Nspe][Gly(N(CH2)2(3-indolyl))]-NH2)	58.6	108.1±2.7	< 6.3	15.3
C[C@@H](c1ccccc1)N(CC(N)=O)C(=O)CN(C(=O)CN(CCCCN)C(=O)CN(C(=O)CN(C(=O)CN(CCCCN)C(=O)CN(C(=O)CN(C(=O)CN(CCCCN)C(=O)CN(C(=O)CN(C(=O)CN(CCCCN)C(=O)CN(CCc1c[nH]c2ccccc12)C(=O)CNCCc1c[nH]c2ccccc12)[C@@H](C)c1ccccc1)[C@@H](C)c1ccccc1)[C@@H](C)c1ccccc1)[C@@H](C)c1ccccc1)[C@@H](C)c1ccccc1)[C@@H](C)c1ccccc1)[C@@H](C)c1ccccc1 [peptoid 6]	57.2	101.6±5.8	9.6	22.0

— article PMC10460844, “Real‐Time Monitoring of Multitarget Antimicrobial Mechanisms of Peptoids Using Label‐Free Imaging with Optical Diffraction Tomography” (Advanced Science, 2023)
